Several values for one entry are separate records, joined by “and”; a condition that tells them apart may be missing. Equal values may be shown once.
Columns and labels:
rats and Rhesus monkeys = conditions: cited from earlier work; for teratogenicity in rats as compared with Rhesus monkeys: administered to rats at corresponding generation stages
36p Tg mice = assay: Teratogenicity and fetal toxicity effects of thalidomide in 36p Tg mouse; conditions: for Details of Malformation: number of fetuses in brackets
Description: Frozen eggs of the transgenic mouse were prepared in accordance with “Example 4: Production of fertilized egg,” and fertilized eggs of the transgenic mouse were cryopreserved. The frozen fertilized eggs were melted, and 20 eggs were respectively transplanted into the oviducts of pseudopregnant female mice of the ICR lineage, and implanted. On the 9th day of gestation, thalidomide was administered into the maternal peritoneal cavity. The effect of thalidomide was tested at the dosage of: 100 mg/kg, and 200 mg/kg. A mixed solution of Tween 20 and physiological saline (1:3) was used as a vehicle. On the day before the delivery, which is the 19th day of gestation, the maternal body was subjected to laparotomy to observe the conditions inside the womb and the presence of teratogenicity and fetal toxicity in the generated and grown fetus. Also, tissues were collected from the fetuses generated and grown in the womb, or vestige of fetal matter in the womb, DNA was extracted therefrom, and the genotype was assayed by PCR The results are summarized in Table 4.

rat = conditions: early test using a rat; cited from earlier work
rabbit = conditions: administration of cyclooxygenase inhibitor; cited from earlier work
Salmonella TA100 = conditions: cited from earlier work

Molecule: O=c1[nH]cc(F)c(=O)[nH]1 [5-fluorouracil]
- teratogenicity in rats as compared with Rhesus monkeys (rats and Rhesus monkeys): teratogenicity was observed at a lower dose

Molecule: O=C1CCC(N2C(=O)c3ccccc3C2=O)C(=O)N1 (centres unmarked) [Thalidomide, thalidomide]
- Implants Total (36p Tg mice; 100 mg/kg i.p. day 9 of gestation, laparotomy day 19, single dam): 15 and 14
- Implants Total (36p Tg mice; 100 mg/kg, Total of 2 dams): 29
- Implants/dam (36p Tg mice; 100 mg/kg, Total of 2 dams): 14.5
- Live fetuses/dam (36p Tg mice; 100 mg/kg, Total of 2 dams): 1.5
- Malformations total (%) (36p Tg mice; 100 mg/kg, Total of 2 dams): 33.3%
- Malformations/Tg (%) (36p Tg mice; 100 mg/kg, Total of 2 dams): 100.0%
- Malformations/nTg (%) (36p Tg mice; 100 mg/kg, Total of 2 dams): 0.0%
- Resorptions (%) (36p Tg mice; 100 mg/kg, Total of 2 dams): 89.7%
- Tg fetuses (%) (36p Tg mice; 100 mg/kg, Total of 2 dams): 33.3%
- Tg/Malformations (%) (36p Tg mice; 100 mg/kg, Total of 2 dams): 100.0%
- nTg fetuses (%) (36p Tg mice; 100 mg/kg, Total of 2 dams): 66.7%
- Details of Malformation (36p Tg mice; 100 mg/kg): 100 mg/kg: umbilical hernia (1)
- Malformations/Tg (%) (36p Tg mice; 100 mg/kg, single dam): 100.0%
- Malformations/nTg (%) (36p Tg mice; 100 mg/kg, single dam): 0.0%
- Resorptions (%) (36p Tg mice; 100 mg/kg, single dam): 93.3% and 85.7%
- Tg/Malformations (%) (36p Tg mice; 100 mg/kg, single dam): 100.0%
- Implants Total (36p Tg mice; 200 mg/kg i.p. day 9 of gestation, laparotomy day 19, single dam): 8 and 16
- Implants Total (36p Tg mice; 200 mg/kg, Total of 2 dams): 24
- Implants/dam (36p Tg mice; 200 mg/kg, Total of 2 dams): 12.0
- Live fetuses/dam (36p Tg mice; 200 mg/kg, Total of 2 dams): 3.0
- Malformations total (%) (36p Tg mice; 200 mg/kg, Total of 2 dams): 16.7%
- Malformations/Tg (%) (36p Tg mice; 200 mg/kg, Total of 2 dams): 33.3%
- Malformations/nTg (%) (36p Tg mice; 200 mg/kg, Total of 2 dams): 0.0%
- Resorptions (%) (36p Tg mice; 200 mg/kg, Total of 2 dams): 70.8%
- Tg fetuses (%) (36p Tg mice; 200 mg/kg, Total of 2 dams): 50.0%
- Tg/Malformations (%) (36p Tg mice; 200 mg/kg, Total of 2 dams): 100.0%
- nTg fetuses (%) (36p Tg mice; 200 mg/kg, Total of 2 dams): 50.0%
- Details of Malformation (36p Tg mice; 200 mg/kg): 200 mg/kg: umbilical hernia (1)
- Malformations total (%) (36p Tg mice; 200 mg/kg, single dam): 16.7%
- Malformations/Tg (%) (36p Tg mice; 200 mg/kg, single dam): 33.3%
- Malformations/nTg (%) (36p Tg mice; 200 mg/kg, single dam): 0.0%
- Resorptions (%) (36p Tg mice; 200 mg/kg, single dam): 100.0% and 56.3%
- Tg fetuses (%) (36p Tg mice; 200 mg/kg, single dam): 50.0%
- Tg/Malformations (%) (36p Tg mice; 200 mg/kg, single dam): 100.0%
- nTg fetuses (%) (36p Tg mice; 200 mg/kg, single dam): 50.0%
- malformation of the fetus (rat): did not develop any malformation
- sensitivity of monkeys relative to that of rats (rats and Rhesus monkeys; teratogenic sensitivity, monkeys versus rats): ≥ 10 times
- sensitivity of rats compared with that of Rhesus monkeys (rats and Rhesus monkeys; teratogenic sensitivity): significantly lower

Molecule: CC(=O)Oc1ccccc1C(=O)O [acetylsalicylic acid]
- effect on teratogenicity of thalidomide (rabbit): suppresses the teratogenicity of thalidomide
- teratogenicity in rats as compared with Rhesus monkeys (rats and Rhesus monkeys): teratogenicity was observed at a lower dose

Molecule: NC(=O)NO [hydroxylurea]
- teratogenicity in rats as compared with Rhesus monkeys (rats and Rhesus monkeys): teratogenicity was observed at a lower dose

Molecule: CN(Cc1cnc2nc(N)nc(N)c2n1)c1ccc(C(=O)N[C@@H](CCC(=O)O)C(=O)O)cc1 [methotrexate]
- teratogenicity in rats as compared with Rhesus monkeys (rats and Rhesus monkeys): teratogenicity was observed at a lower dose
- sensitivity of rats higher than that of monkeys (rats and Rhesus monkeys; teratogenic sensitivity, rats versus monkeys): 20 times

Molecule: CC1=C(/C=C/C(C)=C/C=C/C(C)=C/C(=O)O)C(C)(C)CCC1 [retinoic acid]
- teratogenicity in rats as compared with Rhesus monkeys (rats and Rhesus monkeys): teratogenicity was observed at a lower dose

Molecule: CC[C@]1(O)C[C@H]2CN(CCc3c([nH]c4ccccc34)[C@@](C(=O)OC)(c3cc4c(cc3OC)N(C=O)[C@H]3[C@@](O)(C(=O)OC)[C@H](OC(C)=O)[C@]5(CC)C=CCN6CC[C@]43[C@@H]65)C2)C1 [vincristine]
- teratogenicity in rats as compared with Rhesus monkeys (rats and Rhesus monkeys): teratogenicity was observed at a lower dose

Molecule: Aflatoxin B1
- metabolic activation in mutagenicity test (Salmonella TA100): efficiently activated

From patent US20040073958A1, “Transgenic animal having drug metabolism enzyme gene and utilization thereof” (priority 2001, published 2004)
